Laboratory results as given in patent EP0754455A1, “PHARMACEUTICAL COMPOSITIONS BASED ON AMINOMETHYLINDOLES AND THEIR THERAPEUTICAL APPLICATION AS NEUROPROTECTORS IN PARKINSON AND ALZHEIMER DISEASES” (CONSEJO SUPERIOR INVESTIGACIONES CIENTIFICAS (CSIC), priority 1995, dated 1996).
Read-outs that look alike come from different tables or passages of the source.

Columns and labels:
[1] = biological target: T1, MAO-A (Rattus norvegicus, UniProt P21396); experiment: biochemical; type: biochemical, Sprague-Dawley rat
T1 construct: human and rat tissue to obtain the isolated forms of monoamine oxidase A and B; from tissue
T1 sequence (P21396 1-526): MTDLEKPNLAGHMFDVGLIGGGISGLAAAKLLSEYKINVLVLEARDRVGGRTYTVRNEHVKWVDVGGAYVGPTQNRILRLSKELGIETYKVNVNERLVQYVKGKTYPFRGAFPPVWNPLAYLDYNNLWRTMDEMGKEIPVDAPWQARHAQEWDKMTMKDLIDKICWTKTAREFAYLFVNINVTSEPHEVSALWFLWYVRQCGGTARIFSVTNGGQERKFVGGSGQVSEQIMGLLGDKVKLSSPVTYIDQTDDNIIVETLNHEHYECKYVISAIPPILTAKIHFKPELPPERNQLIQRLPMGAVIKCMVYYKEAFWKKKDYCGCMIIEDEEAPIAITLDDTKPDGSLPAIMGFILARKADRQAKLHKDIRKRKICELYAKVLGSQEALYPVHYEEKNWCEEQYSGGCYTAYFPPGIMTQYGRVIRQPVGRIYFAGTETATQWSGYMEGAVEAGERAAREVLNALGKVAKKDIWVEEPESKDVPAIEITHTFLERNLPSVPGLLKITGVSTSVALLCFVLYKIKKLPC
Procedure: (§1) The mitochondrial portion of Sprague-Dawley rat was used to determine the MAO-A and MAO-B activity.
(§2) Determinations were made of the comparative MAO-A and MAO-B activity inhibition curves of the various compounds under study at time 0 and 30 min. by measuring the remaining activity to 5-HT and PEA as substrates.

[2] = biological target: T2, MAO-B (Rattus norvegicus, UniProt P19643); experiment: MAO-B inhibition, mitochondrial portion of rat (IC50, time dependence, irreversibility), substrate PEA; type: biochemical, Sprague-Dawley rat; settings: MAO-B (lines B..), substrate PEA, rat mitochondria
T2 construct: from tissue; host or cells: Sprague-Dawley rat liver, mitochondrial fraction
T2 sequence (P19643 1-520): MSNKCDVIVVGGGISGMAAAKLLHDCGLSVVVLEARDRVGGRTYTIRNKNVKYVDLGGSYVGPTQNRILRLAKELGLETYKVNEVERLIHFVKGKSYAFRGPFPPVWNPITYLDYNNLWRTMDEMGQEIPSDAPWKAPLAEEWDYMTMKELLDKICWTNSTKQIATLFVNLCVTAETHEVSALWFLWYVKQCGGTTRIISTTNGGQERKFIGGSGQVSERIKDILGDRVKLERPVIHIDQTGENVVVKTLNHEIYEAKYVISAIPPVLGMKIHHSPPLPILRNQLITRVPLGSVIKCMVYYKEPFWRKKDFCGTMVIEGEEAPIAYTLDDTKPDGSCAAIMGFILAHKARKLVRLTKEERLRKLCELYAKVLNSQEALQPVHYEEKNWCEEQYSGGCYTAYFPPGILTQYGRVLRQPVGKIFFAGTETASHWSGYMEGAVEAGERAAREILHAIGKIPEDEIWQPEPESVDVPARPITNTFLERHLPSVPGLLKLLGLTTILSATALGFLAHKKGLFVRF
Procedure: as §1, §2

[3] = biological target: T1, MAO-A; experiment: Kinetic parameters of suicide-type inhibition, MAO-A; type: biochemical, Sprague-Dawley rat; settings: for K^1cat / K1(10^-3) / K^1cat: MAO-A; for K^1cat / K1(10^-3): inhibition efficacy; for K^1cat: velocity constant for formation of the covalent irreversible complex, ± SEM
Source text: Based on the apparent velocity constants of the first order (kapp) obtained for each inhibitor, calculations were made of the K1 and K^1c at (according to the method described by M. Avila et al. 1993, Biochem Pharmac 45, 2231-2237). K1 is the affinity constant of the first stage of the reaction and K1 MAO-A / K1 MAO-B the expression of the selectivity.
(§3) K^1cat is the velocity constant for the formation of the covalent irreversible complex during the second stage of the process. To compare the values of these constants towards the two forms of MAO, we express the inhibition efficacy as the ratio K^1cat/K1. The value of these constants (see Tables 2 and 3), is the result of three different experiments, with their corresponding SEM.

[4] = biological target: T2, MAO-B; experiment: Kinetic parameters of suicide-type inhibition, MAO-B (selectivity K1 MAO-A / K1 MAO-B); type: biochemical, Sprague-Dawley rat; settings: selectivity for MAO-B
Source text: K1 is the affinity constant of the first stage of the reaction and K1 MAO-A / K1 MAO-B the expression of the selectivity.
as §3

[5] = biological target: T3, dopamine carrier (Homo sapiens, UniProt Q01959); experiment: Dopamine carrier inhibition in purified synaptosomes of human caudate; type: biochemical
T3 construct: This assay was carried out in purified synaptosomes of human caudate; from tissue; host or cells: post-mortem human caudate, purified synaptosomes
T3 sequence (Q01959 whole entry): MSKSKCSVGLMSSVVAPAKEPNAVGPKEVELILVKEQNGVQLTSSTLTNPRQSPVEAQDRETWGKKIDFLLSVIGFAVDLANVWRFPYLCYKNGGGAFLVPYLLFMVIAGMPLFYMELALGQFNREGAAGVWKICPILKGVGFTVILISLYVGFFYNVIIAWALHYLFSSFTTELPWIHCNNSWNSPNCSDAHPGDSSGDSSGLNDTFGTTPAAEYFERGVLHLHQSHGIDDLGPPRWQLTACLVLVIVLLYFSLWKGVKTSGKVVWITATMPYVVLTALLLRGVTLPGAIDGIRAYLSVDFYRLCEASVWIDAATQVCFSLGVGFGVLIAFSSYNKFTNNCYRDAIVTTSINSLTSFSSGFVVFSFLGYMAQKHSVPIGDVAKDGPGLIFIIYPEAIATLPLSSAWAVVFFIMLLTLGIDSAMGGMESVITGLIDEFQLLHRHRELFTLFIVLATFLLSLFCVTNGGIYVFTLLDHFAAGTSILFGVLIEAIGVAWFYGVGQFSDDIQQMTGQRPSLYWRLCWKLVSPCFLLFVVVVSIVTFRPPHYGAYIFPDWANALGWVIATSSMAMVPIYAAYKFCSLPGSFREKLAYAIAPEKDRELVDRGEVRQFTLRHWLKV
Procedure: This assay was carried out in purified synaptosomes of human caudate obtained using the same method as described by Rodríguez et al. 1987 Biochem Pharmac 36, 974-976.
The studies were carried out with the same inhibitors used in the rat tissue. The dopamine (DA) concentration was 0.1 µM, a value chosen from the kinetic constants obtained.

[6] = biological target: T4, MAO-A (Mus musculus, UniProt Q64133); experiment: Ex vivo inhibition of brain MAO-A after i.p. administration; type: in vivo, C57/BL mice; settings: mouse brain homogenate 2 hours after i.p., l-deprenyl 10 mg/Kg, tested compound 4 mg/Kg
T4 construct: the brains homogenised in potassium phosphate buffer 50 mM, pH 7.2; from tissue; host or cells: C57/BL mouse brain homogenate
T4 sequence (Q64133 1-526): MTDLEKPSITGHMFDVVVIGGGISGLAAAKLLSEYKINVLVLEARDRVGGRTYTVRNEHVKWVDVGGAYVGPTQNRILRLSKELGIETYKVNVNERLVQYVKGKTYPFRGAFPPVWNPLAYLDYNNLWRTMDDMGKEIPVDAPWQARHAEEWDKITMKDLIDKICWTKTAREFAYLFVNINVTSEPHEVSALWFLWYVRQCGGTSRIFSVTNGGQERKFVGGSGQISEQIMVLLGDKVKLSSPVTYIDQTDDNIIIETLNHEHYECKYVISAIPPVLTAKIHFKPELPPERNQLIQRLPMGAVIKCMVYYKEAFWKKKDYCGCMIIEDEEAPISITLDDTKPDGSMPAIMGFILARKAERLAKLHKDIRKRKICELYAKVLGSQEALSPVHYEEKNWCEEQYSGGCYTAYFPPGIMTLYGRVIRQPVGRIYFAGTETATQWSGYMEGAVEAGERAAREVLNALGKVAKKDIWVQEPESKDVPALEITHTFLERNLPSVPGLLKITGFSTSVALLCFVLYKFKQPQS
Procedure: The pharmacological assays were carried out on C57/BL mice. These animals are sensitive to the induction of the symptomatology of Parkinson's disease through the action of MPTP.
The animals were sacrificed by decapitation after 2 hours and the brains homogenised in potassium phosphate buffer 50 mM, pH 7.2. Determinations were made of the MAO-A and MAO-B activity in each case using radiometric methods.

[7] = IC50 30 min., MAO-A (lines A..), substrate 5-HT, 30 min incubation, rat mitochondria
[8] = MAO-A (lines A..), substrate 5-HT, 0 min incubation, rat mitochondria, read-out: IC50 0 min
[9] = IC50 30 min., 30 min incubation
[10] = 0 min incubation, read-out: IC50 0 min
[11] = MAO-A (A..), affinity constant of the first stage, three experiments ± SEM, read-out: K1
[12] = read-out: IC50 30 min., MAO-A (lines A..), substrate 5-HT, 30 min incubation, rat mitochondria

CC#CCNCc1cc2cc(OCc3ccccc3)ccc2[nH]1 [FA-74]
IC50 [1, 7]: 10000 nM | IC50 [1, 8]: 63000 nM | IC50 [2, 9]: 250 nM | IC50 [2, 10]: 1580 nM | Ki [3, 11]: 5250 nM | K^1cat / K1(10^-3) [3]: 0.04 10^-3 | K^1cat [3]: 0.21 ± 0.1 min⁻¹ | K1 MAO-A/K1 MAO-B [4]: 276.4

CC#CCN(C)Cc1cc2cc(OCc3ccccc3)ccc2n1C [FA-66]
IC50 [1]: 1250 nM | IC50 [1, 12]: 150 nM | Ki [3]: 5.4 nM

C#CCN(C)Cc1cc2cc(OCc3ccccc3)ccc2n1C [FA-65]
IC50 [1]: 1500 nM | IC50 [1, 12]: 100 nM | Ki [3]: 18 nM

C#CCN(C)Cc1cc2cc(OCc3ccccc3)ccc2[nH]1 [FA-87]
IC50 [1]: 630 nM | IC50 [1, 12]: 0.79 nM | Ki [3]: 54.5 nM

C=C=CCNCc1cc2cc(OCc3ccccc3)ccc2[nH]1 [FA-75]
IC50 [1, 7]: 250 nM | IC50 [1, 8]: 3980 nM | IC50 [2, 9]: 25 nM | IC50 [2, 10]: 398 nM | Ki [3, 11]: 347 nM | K^1cat / K1(10^-3) [3]: 0.47 10^-3 | K^1cat [3]: 0.16 ± 0.02 min⁻¹ | K1 MAO-A/K1 MAO-B [4]: 63.0

C=C=CCN(C)Cc1cc2cc(OCc3ccccc3)ccc2n1C [FA-67]
IC50 [1]: 2500 nM | IC50 [1, 12]: 190 nM | Ki [3]: 26.5 nM

C=C=CCN(CC=C=C)Cc1cc2cc(OCc3ccccc3)ccc2[nH]1 [FA-78]
IC50 [1, 7]: 6300 nM | IC50 [1, 8]: 120000 nM | IC50 [2, 9]: 190 nM | IC50 [2, 10]: 3100 nM | Ki [3, 11]: 14100 nM | K^1cat / K1(10^-3) [3]: 0.014 10^-3 | K^1cat [3]: 0.2 ± 0.04 min⁻¹ | K1 MAO-A/K1 MAO-B [4]: 913.6

C#CCN(CC#C)Cc1cc2cc(OCc3ccccc3)ccc2n1C [FA-98]
IC50 [1, 7]: 31000 nM | IC50 [2, 9]: 2500 nM | IC50 [2, 10]: 19400 nM | Ki [3, 11]: 19.8 nM | K^1cat / K1(10^-3) [3]: 5.6 10^-3 | K^1cat [3]: 0.11 ± 0.01 min⁻¹ | K1 MAO-A/K1 MAO-B [4]: 873.5

C=C=CCNCc1cc2cc(OCc3ccccc3)ccc2n1C [FA-97]
IC50 [1, 7]: 25 nM | IC50 [1, 8]: 199 nM | IC50 [2, 9]: 12 nM | IC50 [2, 10]: 790 nM | Ki [3, 11]: 18.8 nM | K^1cat / K1(10^-3) [3]: 6.0 10^-3 | K^1cat [3]: 0.12 ± 0.002 min⁻¹

CC#CCN(CC#CC)Cc1cc2cc(OCc3ccccc3)ccc2[nH]1 [FA-77]
IC50 [1, 7]: 5000 nM | IC50 [1, 8]: 39000 nM | IC50 [2, 9]: 10 nM | IC50 [2, 10]: 25000 nM | Ki [3, 11]: 6520 nM | K^1cat / K1(10^-3) [3]: 0.014 10^-3 | K^1cat [3]: 0.09 ± 0.002 min⁻¹ | K1 MAO-A/K1 MAO-B [4]: 41.5

C#CCN(C)[C@H](C)Cc1ccccc1 [deprenyl, reference compound]
K^1cat [3]: 0.049 ± 0.01 min⁻¹ | IC50 [5]: 100 nM | remaining activity at 4 mg/kg ([6]; ip, control = 100%): 52.5% | MAO-A ACTIVITY ([6]; control 485): 255

CC#CCN(C)Cc1cc2cc(OCc3ccccc3)ccc2[nH]1 [FA-88]
IC50 [1]: 1580 nM | IC50 [1, 12]: 150 nM | Ki [3]: 13.9 nM | K^1cat [3]: 0.04 ± 0.001 min⁻¹
